Reference: ChEMBL document CHEMBL4483862, “Open-source discovery of chemical leads for next-generation chemoprotective antimalarials” (2018)

Tested on: Plasmodium berghei
Assay: Luciferase/luciferin-expressing antifolate-resistant parasites were used to infect a culture of HepG2 cells that were pre-incubated with compounds. Infected hepatocytes emit light due to the luciferase reaction. Assay results are presented as the percent inhibition of light emission compared to control. […]
Format: functional
Settings: sporozoite; for IC90: read-out: LUCIFERASE INFECTION ASSAY - IC90

SMILES	IC90	further results
COCCCNc1nnc(Cc2ccc(Cl)cc2)c(O)n1	> 10.7 µM	IC50 (HEPG2TOX_HILL_SLOPE 2.55, HEPG2TOX_R_SQUARED 0.699, PBLUC_HILL_SLOPE 0.604, PBLUC_R_SQUARED 0.236, read-out: LUCIFERASE INFECTION ASSAY - IC50): 6.39 µM
COc1ccc(CCN=C(S)NC2CCN(Cc3ccccc3)CC2)cc1	> 10 µM	IC50 (HEPG2TOX_HILL_SLOPE 2.55, HEPG2TOX_R_SQUARED 0.6, read-out: LUCIFERASE INFECTION ASSAY - IC50): > 10 µM
Cc1ccc(C(C)C)c(OCc2ccc(C(=O)N/N=C/c3cccc(O)c3O)cc2)c1	> 10 µM	IC50 (HEPG2TOX_HILL_SLOPE 2.51, HEPG2TOX_R_SQUARED 0.938, PBLUC_HILL_SLOPE 16, PBLUC_R_SQUARED 0.0407, read-out: LUCIFERASE INFECTION ASSAY - IC50): 9.9 µM
NC(COCc1ccccc1)c1csc(NC(=O)Nc2cccc(C(F)(F)F)c2)n1 (configuration not stated)	> 7.56 µM	IC50 (HEPG2TOX_HILL_SLOPE 2.5, HEPG2TOX_R_SQUARED 0.677, PBLUC_HILL_SLOPE 2.37, PBLUC_R_SQUARED 0.435, read-out: LUCIFERASE INFECTION ASSAY - IC50): 5.16 µM
COCCNc1nc(Nc2ccc(C)cc2C)c2sccc2n1	> 10 µM	IC50 (HEPG2TOX_HILL_SLOPE 2.54, HEPG2TOX_R_SQUARED 0.987, PBLUC_HILL_SLOPE 3.36, PBLUC_R_SQUARED 0.0445, read-out: LUCIFERASE INFECTION ASSAY - IC50): > 10 µM
Cc1nn(C(C)(C)C)c2c1C(c1ccc3c(c1)OCO3)C1C(=O)CC(C)(C)CC1=N2 (configuration not stated)	> 10 µM	IC50 (HEPG2TOX_HILL_SLOPE 2.55, HEPG2TOX_R_SQUARED 0.436, read-out: LUCIFERASE INFECTION ASSAY - IC50): > 10 µM
O=C1C=C(NCc2ccccc2)CC(c2ccc(Cl)cc2)C1 (configuration not stated)	> 10.6 µM	IC50 (HEPG2TOX_HILL_SLOPE 2.56, HEPG2TOX_R_SQUARED 0.714, PBLUC_HILL_SLOPE 1.97, PBLUC_R_SQUARED 0.212, read-out: LUCIFERASE INFECTION ASSAY - IC50): 6.81 µM
CC(Oc1ccc(Oc2ccc(C(F)(F)F)cc2)cc1)C(=O)N1CCN(c2ccc(C(F)(F)F)cn2)CC1 (configuration not stated)	> 6.12 µM	IC50 (HEPG2TOX_HILL_SLOPE 2.54, HEPG2TOX_R_SQUARED 0.907, PBLUC_HILL_SLOPE 2.4, PBLUC_R_SQUARED 0.3, read-out: LUCIFERASE INFECTION ASSAY - IC50): 3 µM
Cc1ccc(-c2noc(CCCN3CCN(c4cnn(-c5ccccc5)c(=O)c4Cl)CC3)n2)cc1	5.31 µM	IC50 (HEPG2TOX_HILL_SLOPE 2.5, HEPG2TOX_R_SQUARED 0.985, PBLUC_HILL_SLOPE 2.59, PBLUC_R_SQUARED 0.752, read-out: LUCIFERASE INFECTION ASSAY - IC50): 2.28 µM
CCNC(=O)NC(=O)CNC(c1ccc(CC)cc1)c1cccc(F)c1 (configuration not stated)	> 10 µM	IC50 (HEPG2TOX_HILL_SLOPE 2.54, HEPG2TOX_R_SQUARED 0.274, read-out: LUCIFERASE INFECTION ASSAY - IC50): > 10 µM
COc1cc(OC)cc(-c2cnc3cnc(-c4cccc(C)c4C)cn23)c1	8.63 µM	IC50 (HEPG2TOX_HILL_SLOPE 2.52, HEPG2TOX_R_SQUARED 0.881, PBLUC_HILL_SLOPE 5.04, PBLUC_R_SQUARED 0.463, read-out: LUCIFERASE INFECTION ASSAY - IC50): 5.58 µM
CCN1C(=O)N(CCCc2cccnc2)C(=O)C12CCN(Cc1cccc(C(F)(F)F)c1)CC2	> 6.95 µM	IC50 (HEPG2TOX_HILL_SLOPE 2.53, HEPG2TOX_R_SQUARED 0.847, PBLUC_HILL_SLOPE 12.5, PBLUC_R_SQUARED 0.0898, read-out: LUCIFERASE INFECTION ASSAY - IC50): 6.59 µM
CC(C(=O)NC(N)=O)N(C)Cc1ccc(OCc2ccc(Cl)cc2)cc1 (configuration not stated)	9.89 µM	IC50 (HEPG2TOX_HILL_SLOPE 2.51, HEPG2TOX_R_SQUARED 0.952, PBLUC_HILL_SLOPE 1.26, PBLUC_R_SQUARED 0.93, read-out: LUCIFERASE INFECTION ASSAY - IC50): 1.73 µM
Cc1ccc(F)cc1NS(=O)(=O)c1ccc(-n2ncc(Cl)c(Cl)c2=O)cc1	6.47 µM	IC50 (HEPG2TOX_HILL_SLOPE 2.56, 7.18, HEPG2TOX_R_SQUARED 0.970, 0.512, PBLUC_HILL_SLOPE 2.23, 0.224, PBLUC_R_SQUARED 0.767, 0.129, read-out: LUCIFERASE INFECTION ASSAY - IC50): 2.08 µM
COc1ccc(NC(=O)c2cc(N(C)Cc3ccccc3)ncn2)cn1	7.26 µM	IC50 (HEPG2TOX_HILL_SLOPE 2.56, HEPG2TOX_R_SQUARED 0.944, PBLUC_HILL_SLOPE 1.8, PBLUC_R_SQUARED 0.498, read-out: LUCIFERASE INFECTION ASSAY - IC50): 2.14 µM
CCn1nc(C(=O)N2CCN(c3ccccc3)CC2)c2c1CCN(Cc1cc(C)c(OC)cc1C)C2	> 6.77 µM	IC50 (HEPG2TOX_HILL_SLOPE 2.53, HEPG2TOX_R_SQUARED 0.945, PBLUC_HILL_SLOPE 5.03, PBLUC_R_SQUARED 0.659, read-out: LUCIFERASE INFECTION ASSAY - IC50): 4.44 µM

SMILES	IC90	further results
Cn1c(-c2cccnc2)cc2cnc(Nc3ccc(OC(F)(F)F)cc3)cc21	9.47 µM	IC50 (HEPG2TOX_HILL_SLOPE 2.53, HEPG2TOX_R_SQUARED 0.903, PBLUC_HILL_SLOPE 4.19, PBLUC_R_SQUARED 0.443, read-out: LUCIFERASE INFECTION ASSAY - IC50): 5.61 µM
Cc1cccc(C(=O)Nc2nc3ccccn3c2C(=O)NC(C)C)c1	> 9.81 µM	IC50 (HEPG2TOX_HILL_SLOPE 2.5, HEPG2TOX_R_SQUARED 0.601, PBLUC_HILL_SLOPE 2.39, PBLUC_R_SQUARED 0.0938, read-out: LUCIFERASE INFECTION ASSAY - IC50): 6.28 µM
O=C(Nc1nc2ccc(Oc3ccccc3)cc2s1)c1ccoc1	> 10 µM	IC50 (HEPG2TOX_HILL_SLOPE 2.54, HEPG2TOX_R_SQUARED 0.824, PBLUC_HILL_SLOPE 3.93, PBLUC_R_SQUARED 0.329, read-out: LUCIFERASE INFECTION ASSAY - IC50): 7.66 µM
CC(Sc1nnc(/C=C/c2ccc(F)cc2)[nH]1)C(=O)N(Cc1ccccc1)Cc1ccccc1 (configuration not stated)	3.74 µM	IC50 (HEPG2TOX_HILL_SLOPE 2.54, HEPG2TOX_R_SQUARED 0.989, PBLUC_HILL_SLOPE 16.4, PBLUC_R_SQUARED 0.588, read-out: LUCIFERASE INFECTION ASSAY - IC50): 3.27 µM
Clc1ccc2c(NCc3ccc(CN4CCOCC4)cc3)ccnc2c1	4.14 µM	IC50 (HEPG2TOX_HILL_SLOPE 2.51, 1.28, HEPG2TOX_R_SQUARED 0.778, 0.972, PBLUC_HILL_SLOPE 2.92, 9.52, PBLUC_R_SQUARED 0.401, 0.159, read-out: LUCIFERASE INFECTION ASSAY - IC50): 4.34 µM
Cn1cc(C(=O)Nc2ccc(-c3nc4ccccc4[nH]3)cc2)c(-c2ccc3c(c2)OCCCO3)n1	4.31 µM	IC50 (HEPG2TOX_HILL_SLOPE 2.56, HEPG2TOX_R_SQUARED 0.953, PBLUC_HILL_SLOPE 7.83, PBLUC_R_SQUARED 0.745, read-out: LUCIFERASE INFECTION ASSAY - IC50): 3.25 µM
O=C(COc1ccccc1-c1ccccc1)Nc1nc(-c2ccccn2)cs1	9.35 µM	IC50 (HEPG2TOX_HILL_SLOPE 2.53, HEPG2TOX_R_SQUARED 0.481, PBLUC_HILL_SLOPE 10.3, PBLUC_R_SQUARED 0.199, read-out: LUCIFERASE INFECTION ASSAY - IC50): 7.56 µM
CC(=O)Nc1cccc(/C(C)=N/n2c(-c3cccc(Br)c3)cs/c2=N\c2ccc(F)cc2)c1	1.69 µM	IC50 (HEPG2TOX_HILL_SLOPE 2.5, HEPG2TOX_R_SQUARED 0.833, PBLUC_HILL_SLOPE 128, PBLUC_R_SQUARED 0.253, read-out: LUCIFERASE INFECTION ASSAY - IC50): 1.66 µM
COc1ccc(NCC2(c3ccnc(-c4ccccc4Cl)c3)CC2)cn1	> 10 µM	IC50 (HEPG2TOX_HILL_SLOPE 2.53, HEPG2TOX_R_SQUARED 0.891, PBLUC_HILL_SLOPE 5.38, PBLUC_R_SQUARED 0.384, read-out: LUCIFERASE INFECTION ASSAY - IC50): 7.39 µM
O=C1NCC(COC(=O)c2ccc3c4c(cccc24)CC3)O1 (configuration not stated)	3.64 µM	IC50 (HEPG2TOX_HILL_SLOPE 2.53, HEPG2TOX_R_SQUARED 0.949, PBLUC_HILL_SLOPE 23.6, PBLUC_R_SQUARED 0.351, read-out: LUCIFERASE INFECTION ASSAY - IC50): 3.32 µM
O=C(NNc1ccc(I)cc1)c1cc(Cl)cc(Cl)c1	2.86 µM	IC50 (HEPG2TOX_HILL_SLOPE 2.56, HEPG2TOX_R_SQUARED 0.673, PBLUC_HILL_SLOPE 20.4, PBLUC_R_SQUARED 0.213, read-out: LUCIFERASE INFECTION ASSAY - IC50): 2.56 µM
N#CC(/N=C\c1ccc(Cl)cc1)=C(\C#N)NC(=O)Nc1ccc(OC(F)(F)F)cc1	2.75 µM	IC50 (HEPG2TOX_HILL_SLOPE 2.54, HEPG2TOX_R_SQUARED 0.983, PBLUC_HILL_SLOPE 13.2, PBLUC_R_SQUARED 0.605, read-out: LUCIFERASE INFECTION ASSAY - IC50): 2.33 µM
O=C(Nc1ccccc1)Nc1nnc(C(F)(F)F)s1	1.07 µM	IC50 (HEPG2TOX_HILL_SLOPE 2.53, HEPG2TOX_R_SQUARED 0.953, PBLUC_HILL_SLOPE 4.44, PBLUC_R_SQUARED 0.774, read-out: LUCIFERASE INFECTION ASSAY - IC50): 0.65 µM
CCOC(=O)C1=C(C)NC(C)=C(C(=O)OCC)C1C(=O)OCC(=O)NC12CC3CC(CC(C3)C1)C2	> 10 µM	IC50 (HEPG2TOX_HILL_SLOPE 2.54, HEPG2TOX_R_SQUARED 0.735, read-out: LUCIFERASE INFECTION ASSAY - IC50): > 10 µM
COc1ccc(-c2cc(=O)n3nc(C)c(-c4ccc(F)cc4)c3[nH]2)cc1	3.24 µM	IC50 (HEPG2TOX_HILL_SLOPE 2.56, HEPG2TOX_R_SQUARED 0.662, PBLUC_HILL_SLOPE 58.3, PBLUC_R_SQUARED 0.0989, read-out: LUCIFERASE INFECTION ASSAY - IC50): 3.12 µM
